We go through 16 compounds from ChEMBL document CHEMBL1909046, “DrugMatrix in vitro pharmacology data”.

Data set [1] can be described thus: DRUGMATRIX: Sodium/nucleoside co-transporter radioligand binding (ligand: nitrobenzylthioinosine). The conditions noted are these: Not Active = under 50% inhibition at 10 µM. In kind it is cell membranes, Cavia porcellus, Dunkin-Hartley, Cerebral cortex, Membrane.
A short description of data set [2]: DRUGMATRIX: Sigma2 radioligand binding (ligand: [3H] Ifenprodil). The conditions noted are these: Not Active = under 50% inhibition at 10 µM. In kind it is cell membranes, Rattus norvegicus, Wistar, Brain, Membrane.
Another data set deals with Insulin receptor (Rattus norvegicus, UniProt P15127). In kind it is cell membranes, Wistar, Liver, Membrane.
The target in a further data set is Mu-type opioid receptor (Homo sapiens, UniProt P35372). The experiment in a line: DRUGMATRIX: Opiate mu (OP3, MOP) radioligand binding (ligand: [3H] Diprenorphine). Particulars: cho-k1; Not Active = under 50% inhibition at 10 µM. In kind it is cell membranes, CHO-K1, Membrane.
Data set [3] concerns the target T1, Angiotensin-converting enzyme (Oryctolagus cuniculus, UniProt P12822).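 Further: enzymatic inhibition of angiotensin-converting enzyme measured with FAPGG as the substrate; in other assays of this panel Not Active means under 50% inhibition at 10 µM.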
T1 sequence (P12822 whole entry): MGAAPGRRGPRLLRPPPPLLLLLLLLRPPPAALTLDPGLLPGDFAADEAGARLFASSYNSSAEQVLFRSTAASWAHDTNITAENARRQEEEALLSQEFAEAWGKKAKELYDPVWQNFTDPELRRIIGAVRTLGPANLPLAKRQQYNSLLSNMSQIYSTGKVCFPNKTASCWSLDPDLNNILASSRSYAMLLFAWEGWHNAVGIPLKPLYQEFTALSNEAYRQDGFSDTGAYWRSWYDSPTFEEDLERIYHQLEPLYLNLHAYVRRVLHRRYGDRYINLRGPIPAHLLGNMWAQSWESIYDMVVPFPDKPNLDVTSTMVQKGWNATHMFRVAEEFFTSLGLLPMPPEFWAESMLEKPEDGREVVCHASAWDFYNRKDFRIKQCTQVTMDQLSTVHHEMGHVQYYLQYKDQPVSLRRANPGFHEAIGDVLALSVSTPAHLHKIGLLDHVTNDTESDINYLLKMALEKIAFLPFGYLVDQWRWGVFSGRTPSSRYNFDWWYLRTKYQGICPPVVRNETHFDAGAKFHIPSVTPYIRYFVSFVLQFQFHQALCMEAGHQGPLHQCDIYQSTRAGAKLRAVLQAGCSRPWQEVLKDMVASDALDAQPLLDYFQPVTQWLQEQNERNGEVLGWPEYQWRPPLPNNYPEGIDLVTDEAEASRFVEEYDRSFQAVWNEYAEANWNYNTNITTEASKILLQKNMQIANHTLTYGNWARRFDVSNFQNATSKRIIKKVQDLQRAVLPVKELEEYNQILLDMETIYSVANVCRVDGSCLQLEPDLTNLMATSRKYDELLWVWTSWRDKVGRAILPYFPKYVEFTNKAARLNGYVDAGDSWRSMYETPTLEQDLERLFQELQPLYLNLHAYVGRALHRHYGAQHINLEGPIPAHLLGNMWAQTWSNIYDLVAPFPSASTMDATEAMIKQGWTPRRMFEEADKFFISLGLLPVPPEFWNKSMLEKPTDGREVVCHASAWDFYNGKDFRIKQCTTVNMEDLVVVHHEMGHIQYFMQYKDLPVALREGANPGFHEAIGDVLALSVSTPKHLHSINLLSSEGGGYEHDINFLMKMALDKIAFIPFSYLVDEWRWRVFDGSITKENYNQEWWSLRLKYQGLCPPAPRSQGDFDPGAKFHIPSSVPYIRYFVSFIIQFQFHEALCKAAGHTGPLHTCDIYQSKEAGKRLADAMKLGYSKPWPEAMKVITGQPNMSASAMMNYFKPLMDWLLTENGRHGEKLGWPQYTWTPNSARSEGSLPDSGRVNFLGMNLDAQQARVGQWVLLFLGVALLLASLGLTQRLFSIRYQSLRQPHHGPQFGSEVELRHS
In kind it is tissue-based, Lung.

The target in data set [4] is Tyrosine-protein kinase Fyn (Homo sapiens, UniProt P06241). Description: biochemical. In kind it is cell-based, Insect cells. Particulars: insect cells.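 Further: enzymatic inhibition of Fyn kinase activity measured with Poly(Glu:Tyr) as the phosphorylation substrate; in other assays of this panel Not Active means under 50% inhibition at 10 µM.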
A further data set concerns the target T2, Cytochrome P450 1A2 (Homo sapiens, UniProt P05177). Further: in other assays of this panel Not Active means under 50% inhibition at 10 µM.
T2 sequence (P05177 whole entry): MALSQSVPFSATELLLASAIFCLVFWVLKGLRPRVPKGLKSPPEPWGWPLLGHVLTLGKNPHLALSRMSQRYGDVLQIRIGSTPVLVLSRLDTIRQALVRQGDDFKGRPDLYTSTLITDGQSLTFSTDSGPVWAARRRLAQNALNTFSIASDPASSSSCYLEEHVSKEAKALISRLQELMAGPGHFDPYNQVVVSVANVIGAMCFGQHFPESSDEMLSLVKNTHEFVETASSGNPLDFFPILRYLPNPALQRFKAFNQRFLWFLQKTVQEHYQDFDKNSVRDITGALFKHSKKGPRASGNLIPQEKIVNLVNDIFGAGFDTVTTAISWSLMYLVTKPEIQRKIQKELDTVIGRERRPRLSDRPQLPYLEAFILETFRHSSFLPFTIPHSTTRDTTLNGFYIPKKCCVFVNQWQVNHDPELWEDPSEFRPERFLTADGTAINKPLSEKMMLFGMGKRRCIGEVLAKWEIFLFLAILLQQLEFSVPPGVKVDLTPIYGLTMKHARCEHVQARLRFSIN
Particulars: bti-tn-5b1-4.

Sequence of Mu-type opioid receptor (P35372 whole entry): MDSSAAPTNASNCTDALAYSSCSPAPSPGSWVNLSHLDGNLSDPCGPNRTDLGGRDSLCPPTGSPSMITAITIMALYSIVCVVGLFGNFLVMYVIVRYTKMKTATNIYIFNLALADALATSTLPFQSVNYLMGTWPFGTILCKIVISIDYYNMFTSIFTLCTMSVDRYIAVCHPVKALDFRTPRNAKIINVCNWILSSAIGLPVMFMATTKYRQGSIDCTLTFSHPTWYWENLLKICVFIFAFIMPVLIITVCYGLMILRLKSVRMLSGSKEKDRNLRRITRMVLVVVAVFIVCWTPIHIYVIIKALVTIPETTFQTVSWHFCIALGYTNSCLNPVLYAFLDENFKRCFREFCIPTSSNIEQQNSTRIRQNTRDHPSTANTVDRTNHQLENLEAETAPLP
Sequence of Insulin receptor (P15127 27-759 limits assumed): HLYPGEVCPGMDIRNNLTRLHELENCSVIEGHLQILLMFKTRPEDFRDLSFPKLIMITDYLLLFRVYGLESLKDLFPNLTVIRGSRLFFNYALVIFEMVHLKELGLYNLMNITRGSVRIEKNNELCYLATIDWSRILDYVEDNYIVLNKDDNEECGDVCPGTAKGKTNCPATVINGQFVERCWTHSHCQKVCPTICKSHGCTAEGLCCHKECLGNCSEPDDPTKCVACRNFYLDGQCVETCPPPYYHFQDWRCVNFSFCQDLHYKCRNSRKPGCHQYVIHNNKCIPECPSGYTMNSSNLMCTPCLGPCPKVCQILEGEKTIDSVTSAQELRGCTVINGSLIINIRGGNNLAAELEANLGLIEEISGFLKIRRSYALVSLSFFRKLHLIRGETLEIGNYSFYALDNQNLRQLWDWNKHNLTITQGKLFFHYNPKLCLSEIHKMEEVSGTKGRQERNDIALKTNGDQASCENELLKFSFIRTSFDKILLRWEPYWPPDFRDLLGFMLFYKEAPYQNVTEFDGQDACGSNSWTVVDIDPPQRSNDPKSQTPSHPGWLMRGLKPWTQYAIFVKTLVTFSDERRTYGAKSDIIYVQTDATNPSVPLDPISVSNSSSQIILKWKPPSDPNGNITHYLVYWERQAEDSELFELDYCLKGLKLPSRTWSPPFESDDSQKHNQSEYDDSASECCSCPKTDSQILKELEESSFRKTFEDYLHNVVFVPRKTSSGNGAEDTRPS
Sequence of Insulin receptor (P15127 764-1383 limits assumed): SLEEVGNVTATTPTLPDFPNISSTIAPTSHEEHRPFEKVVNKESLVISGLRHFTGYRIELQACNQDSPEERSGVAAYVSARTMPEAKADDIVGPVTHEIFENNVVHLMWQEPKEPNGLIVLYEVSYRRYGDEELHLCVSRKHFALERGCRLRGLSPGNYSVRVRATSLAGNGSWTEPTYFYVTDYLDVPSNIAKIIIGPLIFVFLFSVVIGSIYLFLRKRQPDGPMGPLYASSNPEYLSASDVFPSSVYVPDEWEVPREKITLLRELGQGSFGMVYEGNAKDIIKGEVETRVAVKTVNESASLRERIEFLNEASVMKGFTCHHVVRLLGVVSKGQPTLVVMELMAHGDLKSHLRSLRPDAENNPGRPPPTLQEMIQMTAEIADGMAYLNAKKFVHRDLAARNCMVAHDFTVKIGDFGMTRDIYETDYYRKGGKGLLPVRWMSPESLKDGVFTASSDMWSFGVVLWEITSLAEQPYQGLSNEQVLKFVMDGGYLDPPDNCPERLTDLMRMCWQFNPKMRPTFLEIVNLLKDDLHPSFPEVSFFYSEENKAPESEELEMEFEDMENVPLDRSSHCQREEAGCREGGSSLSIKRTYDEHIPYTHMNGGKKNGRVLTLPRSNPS
Sequence of Tyrosine-protein kinase Fyn (P06241 whole entry): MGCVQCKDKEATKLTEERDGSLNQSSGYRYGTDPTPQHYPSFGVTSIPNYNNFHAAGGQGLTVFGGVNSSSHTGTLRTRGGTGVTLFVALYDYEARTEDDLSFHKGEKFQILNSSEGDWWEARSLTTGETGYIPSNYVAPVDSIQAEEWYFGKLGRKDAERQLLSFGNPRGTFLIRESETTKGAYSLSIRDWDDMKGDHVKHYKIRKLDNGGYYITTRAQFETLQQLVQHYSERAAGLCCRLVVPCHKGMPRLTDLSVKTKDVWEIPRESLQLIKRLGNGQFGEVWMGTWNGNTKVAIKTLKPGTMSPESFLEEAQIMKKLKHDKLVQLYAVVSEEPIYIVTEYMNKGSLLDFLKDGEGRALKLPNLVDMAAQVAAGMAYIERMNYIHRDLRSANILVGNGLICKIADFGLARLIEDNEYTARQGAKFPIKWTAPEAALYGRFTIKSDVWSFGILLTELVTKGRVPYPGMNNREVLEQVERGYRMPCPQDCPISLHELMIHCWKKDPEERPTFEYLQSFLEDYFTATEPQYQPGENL

Take `CCOc1nc2cccc(C(=O)O)c2n1Cc1ccc(-c2ccccc2-c2nnn[nH]2)cc1`: the IC50 entry (in data set [1]; in data set [2]; against Insulin receptor; on Mu-type opioid receptor; in data set [3]; in data set [4]) was “Not Active” throughout. For the same compound, the Ki entry in data set [1] and in data set [2] was “Not Active” each time.
For the compound `O=C(O)CCCc1cccs1`, the IC50 entry (in data set [1]; in data set [2]; at Insulin receptor; at Mu-type opioid receptor; in data set [3]; in data set [4]) was “Not Active” throughout. The IC50 (usually the midpoint of a concentration-inhibition curve) against Cytochrome P450 1A2 is on record as “Not Active”. For the same compound, the Ki result (in data set [1]; in data set [2]; on Cytochrome P450 1A2) was “Not Active” throughout.
Regarding `O=C(c1ccccc1F)N1CCC(Cc2ccccc2)CC1`, the IC50 result (in data set [1]; in data set [2]; at Insulin receptor; at Mu-type opioid receptor; in data set [3]; in data set [4]) was “Not Active” in each case. In addition, on Cytochrome P450 1A2, the IC50 entry was “Not Active”. The Ki entry (in data set [1]; in data set [2]; at Cytochrome P450 1A2) was “Not Active” each time.
For `NC12CC3CC(CC(C3)C1)C2` [AMANTADINE], the IC50 result (in data set [1]; in data set [2]; on Insulin receptor; on Mu-type opioid receptor; in data set [3]; in data set [4]) was “Not Active” throughout. Besides, the Ki result in data set [1] and in data set [2] was “Not Active” each time.
Take `CC(C)c1c(C(=O)Nc2ccccc2)c(-c2ccccc2)c(-c2ccc(F)cc2)n1CC[C@@H](O)C[C@@H](O)CC(=O)O` [ATORVASTATIN]: the IC50 result (in data set [1]; in data set [2]; against Insulin receptor; at Mu-type opioid receptor; in data set [3]; in data set [4]) was “Not Active” throughout. The Ki entry in data set [1] and in data set [2] was “Not Active” in each case.
Regarding `C#C[C@]1(O)CC[C@H]2[C@@H]3CCC4=CC(=O)CC[C@]4(C)[C@H]3CC[C@@]21C` [ETHISTERONE], the IC50 entry (in data set [1]; in data set [2]; on Insulin receptor; on Mu-type opioid receptor; in data set [3]; in data set [4]) was “Not Active” each time. The Ki entry in data set [1] and in data set [2] was “Not Active” each time.
For `CC(C)(C(=O)O)c1ccc(C(O)CCCN2CCC(C(O)(c3ccccc3)c3ccccc3)CC2)cc1` (centres undefined) [FEXOFENADINE], the concentration for half-maximal inhibition (IC50) entry (in data set [1]; in data set [2]; on Insulin receptor; on Mu-type opioid receptor; in data set [3]; in data set [4]) was “Not Active” each time. Further, the Ki entry in data set [1] and in data set [2] was “Not Active” each time.
On to `CC(=O)OCC(=O)[C@@]12OC(C)(C)O[C@@H]1C[C@H]1[C@@H]3C[C@H](F)C4=CC(=O)C=C[C@]4(C)[C@@]3(F)[C@@H](O)C[C@@]12C` [FLUOCINONIDE], for which the IC50 entry (in data set [1]; in data set [2]; against Insulin receptor; on Mu-type opioid receptor; in data set [3]; in data set [4]) was “Not Active” each time. The Ki result in data set [1] and in data set [2] was “Not Active” each time.
With `N[C@@H](Cn1ccc(=O)c(O)c1)C(=O)O` [L-MIMOSINE], the IC50 result (in data set [1]; in data set [2]; against Insulin receptor; at Mu-type opioid receptor; in data set [3]; in data set [4]) was “Not Active” throughout. Besides, the Ki entry in data set [1] and in data set [2] was “Not Active” throughout.
In the case of `CN(C)C(=N)NC(=N)N` [METFORMIN], the IC50 result (in data set [1]; in data set [2]; on Insulin receptor; at Mu-type opioid receptor; in data set [3]; in data set [4]) was “Not Active” in each case. Besides, the Ki result in data set [1] and in data set [2] was “Not Active” in each case.
Consider `CC(C)(C)NCC(O)COc1cccc2c1CC(O)C(O)C2` (centres undefined) [NADOLOL], for which the IC50 result (in data set [1]; in data set [2]; against Insulin receptor; at Mu-type opioid receptor; in data set [3]; in data set [4]) was “Not Active” each time. The Ki result in data set [1] and in data set [2] was “Not Active” in each case.
Regarding `C[C@]12CC[C@H]3[C@@H](CCC4=CC(=O)CC[C@@H]43)[C@@H]1CC[C@@H]2O` [NANDROLONE], the IC50 entry (in data set [1]; in data set [2]; against Insulin receptor; in data set [3]; in data set [4]; on Cytochrome P450 1A2) was “Not Active” in each case. The Ki entry (in data set [1]; in data set [2]; on Cytochrome P450 1A2) was “Not Active” throughout.
On to `C[C@@H]1C/C=C/C=C/C=C/C=C/[C@H](O[C@@H]2O[C@H](C)[C@@H](O)[C@H](N)[C@@H]2O)C[C@@H]2O[C@](O)(C[C@@H](O)C[C@H]3O[C@@H]3/C=C/C(=O)O1)C[C@H](O)[C@H]2C(=O)O` [NATAMYCIN], for which the IC50 entry (in data set [1]; in data set [2]; against Insulin receptor; at Mu-type opioid receptor; in data set [3]; in data set [4]) was “Not Active” throughout. In addition, the Ki entry in data set [1] and in data set [2] was “Not Active” throughout.
As for `C[C@@H]1O[C@@H](O[C@H]2C[C@@H](O)[C@]3(CO)[C@H]4[C@H](O)C[C@]5(C)[C@@H](C6=CC(=O)OC6)CC[C@]5(O)[C@@H]4CC[C@]3(O)C2)[C@H](O)[C@H](O)[C@H]1O` [OUABAIN], the IC50 result (in data set [1]; in data set [2]; at Insulin receptor; in data set [3]; in data set [4]) was “Not Active” throughout. Further, the Ki entry in data set [1] and in data set [2] was “Not Active” in each case.
Regarding COBALTOUS CHLORIDE, the IC50 entry (in data set [1]; in data set [2]; against Insulin receptor; in data set [3]; in data set [4]; at Cytochrome P450 1A2) was “Not Active” in each case. In addition, the Ki result (in data set [1]; in data set [2]; on Insulin receptor; in data set [3]; in data set [4]; on Cytochrome P450 1A2) was “Not Active” in each case.
With COLISTIN, the IC50 result is “Not Active” in data set [1]; “Not Active” in data set [2]; “Not Active” at Insulin receptor; “Not Active” in data set [3]; 0.959 µM in data set [4] (read-out: IC50); “Not Active” against Cytochrome P450 1A2. For the same compound, the Ki result (in data set [1]; in data set [2]; at Insulin receptor; in data set [3]; on Cytochrome P450 1A2) was “Not Active” each time.
